Measurements taken from patent publication US20220288277A1, “SURFACE COATINGS AND IMPLANTABLE DEVICES COMPRISING DIMERIC STEROID PRODRUGS, AND USES THEREOF” (Ripple Therapeutics Corporation, priority 2019, published 2022).

Columns and labels:
[1] = tested on: device related fibrosis; experiment: Rat study of coated polymeric discs, collagenous capsule wall thickness (Masson's Trichrome); assay type: in vivo, female Wistar rats; settings: drop coated discs, subcutaneous, day 7 and day 21, versus non-coated implants
Description: The coatings were dried at ambient conditions over night and sterilized using Ethylene oxide (ETO) gas. Coated substrates were then implanted into the dorsal subcutaneous space in female Wistar rats with starting weights of 250-290 g. Animals were euthanized at day 7 (inflammatory phase) and day 21 (fibrotic phase) to assess the tissue response to coated versus non-coated implants. The thickness of the collagenous capsule wall surrounding the implant was quantified by morphometric image analysis on cross-section of excised capsules with associated tissue that were stained with Masson's Trichrome.

[2] = Ethylene oxide (ETO) gas sterilization of coated fibrous Dacron meshes, purity and drug release pre- and post-ETO; assay type: physicochemical; settings: ETO gas at 55° C.
Experimental: Compound 1 coated onto fibrous Dacron meshes were sterilized by ethylene oxide (ETO) gas at a temperature of 55° C. […] Drug release was carried out in PBS at 37 C.

[3] = tested on: skin surrounding the injection sites; experiment: Rat study with spray coated substrates injected into the dorsal subcutaneous space; assay type: in vivo, male SD rats; settings: highest coating amount (23.3 μg dexamethasone), day 14
Experimental: Coatings of Compound 1 in various dexamethasone amounts (1.4-23.3 μg) were spray coated onto substrates as described in Example 4 and sterilized by ETO gas. Coated substrates were injected into the dorsal subcutaneous space of male SD rats with starting weights of 100-124 g (Envigo, Frederick, Md. USA). Animals were euthanized at 0, 3, 7 and 14 days and the skin surrounding the injection sites dissected. Coating remaining at each time point was quantified by HPLC.

[4] = Drug release from coated surfaces and extruded cylinders in PBS at 37 C, monitored by HPLC; assay type: physicochemical
Description: As stated herein, “t50” is the time at which 50% of the releasable drug has been released from a surface coating or drug depot of the disclosure. Time t10 is, correspondingly, the time at which 10% of the releasable drug has been released from a surface coating or drug depot of the disclosure. When the release curve is perfectly linear, t10=⅕ of t50. When there is an initial burst of released drug, t10 is much less than ⅕ of t50. In the compositions and methods of the disclosure t10 can be equal to or greater than 1/10 of t50. Drug release from a surface coating, drug depot, or compound of the disclosure can be measured at 37° C. in 100% bovine serum, or at 37° C. in PBS (phosphate buffered saline), as described in Example 1.
Different substrates including poly(styrene-block-isobutylene-block-styrene) (SIBS) films, titanium coupons, and fibrous Dacron (polyethylene terephthalate) meshes (FIG. 2A) were coated with compound 1 from acetone by drop coating (FIG. 2B) forming an amorphous (glassy) coating. […] The bottom of a glass vial was coated with compound 1 and dexamethasone from dichloromethane (DCM) using the drop coating method.
Compound 2 was dissolved in DCM and was drop coated onto the bottom of a glass vial and solvent was evaporated to form the surface coating. Drug release was carried out in PBS at 37 C with buffer changes and was monitored by HPLC.
Compound 3 was dissolved in DCM and was drop coated onto the bottom of a glass vial and solvent was evaporated to form the surface coating. Drug release was carried out in PBS at 37 C with buffer changes and was monitored by HPLC.
Compound 1 was formed into cylinders by heat extrusion from the intermediate glassy state by pre-melting compound 1 prior to extrusion. In vitro drug release was carried out in PBS at 37 C and drug release was quantified by HPLC. […] The cylinders can be used as a drug depot within a medical device or injected adjacent to the medical device to release dexamethasone.

[5] = In vitro drug release profiles from coated discs; assay type: physicochemical; settings: coated discs (FIG. 18B)
[6] = Drug release profiles of heat press versus spray coated surface coatings; assay type: physicochemical; settings: similar drug densities (8.2-8.3 μg/mm^2)
Experimental: Drug release profiles from Compound 1 surface coatings with similar drug densities (8.2-8.3 μg/mm^2) formed from the heat press process and spray coating process were similar (FIG. 16B), confirming that drug release is a material property and not influenced by coating technique.

[7] = tested on: device related foreign body reaction in the rat subcutaneous model; experiment: Rat study of coated substrates, morphometric image analysis of CD68 stained cross-sections; assay type: in vivo, female Wistar rats; settings: spray coated thin films or drop coated discs, days 3 and 7, compared to non-coated substrates
Experimental: Compound 1 was dissolved in acetone and spray coated onto thin films of a polymeric substrate or drop coated onto discs of a different polymeric substrate. Both coatings were dried at ambient conditions over night and sterilized using Ethylene oxide (ETO) gas. Coated substrates were then implanted into the dorsal subcutaneous space in female Wistar rats with starting weights of 250-290 g. Animals were euthanized at the peak of inflammatory phase in days 3 and 7. The cells in the surrounding area of both substrates were assessed by morphometric image analysis on cross-section of excised substrates with associated tissue that were stained for CD68 (inflammatory cell marker), ASMA (fibroblast marker) and DAPI ([…]). The number of recruited CD68 positive cells were reduced in response to both substrates coated with compound 1 compared to non-coated substrates. Thus, compound 1 suppresses inflammation in device related foreign body reaction and fibrosis in the rat subcutaneous model regardless of coating method or substrate.

[8] = Coating retention / drug release from coated substrates in 100% FBS at 37 C, HPLC; assay type: physicochemical
Experimental: Compound 1 was drop coated with the same total amount of compound 1 from an organic solution (acetone) onto SIBS films, Dacron films, and fibrous Dacron meshes, and drug release was carried out in 100% FBS at 37 C. The coating was extracted from the substrates at different time points and was plotted as a percentage of coating retained over time (FIG. 4).
Substrates coated with Compound 1 by drop coating or spray coating were incubated in fetal bovine serum (FBS) to determine the amount of Compound 1 retained over time. Each coated substrate was placed in a glass vial containing 4 mL FBS and incubated at 37° C. on a rotating platform. After 1 to 4 days, the remaining coating was extracted and was determined by HPLC (FIG. 9). The amount of Compound 1 retained following 1-day incubation in FBS ranged from 15 to 100% of the initial amount loaded and roughly correlated with thickness (total loading) of the coating.
Drug release was carried out in 100% FBS and agitation at 37 C with buffer changes and was monitored by HPLC.

[9] = Drug release from injectable cylinders in the subcutaneous tissue of rats; assay type: in vivo, male Sprague Dawley rats; settings: cylinders 23G-32G, 2 mm, subcutaneous with suture, 7 and 28 days
Experimental: Cylinders of Compound 1 in various diameters (23G-32G) and 2 mm in length were processed as described in Example 1 and were loaded into needles with a piece of medical sutures as shown in FIG. 21A. The loaded needles were sterilized by ethylene oxide gas. The cylinders and sutures were injected into the dorsal subcutaneous space of male Sprague Dawley rats with starting weights of 100-124 g (Envigo, Frederick, Md. USA). Animals were euthanized at 7 and 28 days and the skin surrounding the injection sites were dissected. Pellet drug content at each time point was calculated from in-situ image analysis, confirmed by HPLC, and was plotted as cumulative drug release from the cylinders (FIG. 21C).

Row | Cumulative drug release from the coated surface ([4]; drop coated from DCM onto glass vial, PBS at 37 C with buffer changes) | Molecule | Capsule wall diameter (fibrotic layer thickness) [1] | Coating purity pre- and post-ETO sterilization ([2]; fibrous Dacron meshes, HPLC) | Drug release pre- and post-ETO sterilization ([2]; release in PBS at 37 C) | Skin observation around the coated substrate [3] | Drug release mechanism from extruded cylinders ([4]; cylinders extruded with 23G and 30G nozzles, PBS at 37 C) | Drug release from the coated surfaces ([4]; drop coated on SIBS, titanium, Dacron mesh, glass, PBS at 37 C) | In vitro drug release profile [5] | Drug release profiles, heat press process versus spray coating process [6] | Number of recruited CD68 positive cells [7] | Coating retained over time ([8]; drop coated on SIBS and Dacron films (thicker, lower surface area coating)) | Coating retained over time ([8]; drop coated on fibrous Dacron mesh (thin, high surface area coating)) | Cumulative drug release from the cylinders in vivo [9]
1 | – | C[C@@H]1C[C@H]2[C@@H]3CCC4=CC(=O)C=C[C@]4(C)[C@@]3(F)[C@@H](O)C[C@]2(C)[C@@]1(O)C(=O)COC(=O)OCCOCCOCCOC(=O)OCC(=O)[C@@]1(O)[C@H](C)C[C@H]2[C@@H]3CCC4=CC(=O)C=C[C@]4(C)[C@@]3(F)[C@@H](O)C[C@@]21C [Compound 1, dexamethasone-triethylene glycol-dexamethasone] | statistically thinner | no changes | no changes in release properties | Skin bleaching was noted | surface erosion | slow, sustained drug release | sustained release | similar | reduced | lower and longer sustained release | quick release of coating from the surface | sustained dexamethasone release
2 | – | dexamethasone-hexane-dexamethasone [Compound 4] | statistically thinner | – | – | – | – | – | – | – | – | – | – | –
3 | consistent drug release | hydrocortisone-triethylene glycol-hydrocortisone [Compound 2] | – | – | – | – | – | – | – | – | – | – | – | –
